Laboratory results taken from patent US20140193827A1 (TEVA PHARMACEUTICAL INDUSTRIES, LTD., priority 2013, published 2014).

Tests used:
[1] = system: GA-primed murine splenocytes; assay: Functional gene expression analysis (Ingenuity Pathways Analysis: biological functions, canonical pathways); parameters: species or system mouse; conditions: vs. Medium
Procedure: To identify the leading biological mechanisms associated with genes induced in splenocytes by glatiramoids, gene functional annotation, enrichment, and pathway analyses were performed by Ingenuity Pathways Analysis (IPA) Suite (www.ingenuity.com). The program integrates data from various experimental platforms and primary literature sources to provide insight into molecular interactions, cellular phenotypes, and disease processes, and then predicts downstream biological effects of gene transcription changes. IPA web software was also used to reconstruct regulatory genes and transcriptional factors functional networks. A significance score (using the right-tailed Fisher's exact test and expressed as a p value) for each process is calculated as the number of gene transcripts that participate in a network or pathway relative to the total number of these genes in all functional/pathway annotations stored in the IPA database. All p values were applied for multiple testing corrections using Benjamini-Hochberg FDR method with a cut off at p =0.05.

[2] = system: GA-primed murine splenocytes; assay: Differentially expressed genes GA vs PG by multiple parametric tests (ANOVA, LIMMA with background subtraction, comparative marker selection SNR and t-test); type: cell-based, mouse
Procedure: The experimental design, data collection, and pre-processing steps have been previously described. […] After 3 days the mice were sacrificed, their splenocytes were isolated, and these splenocytes were mixed with activator solutions for 24 hours. […] Then the RNA was extracted and gene expression characterized by microarray using an Illumine WG-6_V2 chip. Illumina's BeadStudio software was utilized for image processing, quantification of signal intensity per bead, and background signal correction. The microarray data have been deposited in the Gene Expression Omnibus, under accession number GSE40566.
We then corrected for batch variation with ComBat (30) as implemented in the SVA package of R (62). Each microarray's chip designation was supplied a batch label; there were 18 batches in all. The labels for the treatments (i.e. drug product, reference standard . . . ) were added as covariates.
First, we computed the statistical significance of differential expression between treatments using the Analysis of Variance (ANOVA) method for each probe (65), adjusting for multiple hypothesis testing using the Benjamini-Hochberg False Discovery Rate (FDR) correction (66). […] The coefficients for the linear model were tested for significance using a modified t-test (taking into account standard deviation) and the p-values for each probe were adjusted using FDR. […] We applied two separate techniques within this framework; a traditional T-test and a Signal-to-Noise Ratio test (SNR). For each of these two tests, we adjusted the nominal p-values via FDR. For all four tests described, we used an adjusted threshold that was less than or equal to 0.05.

[3] = system: GA-primed murine splenocytes; assay: Microarray gene expression profiling of GA-primed splenocytes reactivated ex vivo (t-test / 1-way ANOVA vs. Medium or GA-RS); type: cell-based, mouse
From the text: All experimental procedures conformed to accepted ethical standards for use of animals in research and were in accordance with Committee for the Care and Use of Experimental Animals guidelines and approved by the Teva Institutional Animal Care and Use Committee. For these experiments, we purchased 8- to 12-week old female (Balb/c×SJL)F1 mice (Harlan, Israel). […] Single cell suspension was prepared. […] Splenocytes (125 μL 10×10^6 SPL cell/mL suspension) were added to the activator solutions and incubated for 24 hours at 37° C. Then, cells were washed, diluted with RNA stabilization solution (RNAlater® solution, Applied Biosystems), and stored at 4° C. […] RNA quality was assessed by the absorbance ratio at 260/280 on and gel electrophoresis (Experion™, Bio-Rad, Hercules, Calif.). […] Microarray hybridization, array scanning, and initial preprocessing were performed by BioRap (Technion, Haifa, Israel). […] The subsequent bioinformatics analyses were conducted in the Bioinformatics Core Facility of the National Institute for Biotechnology in the Negev, Ltd. (NIBN, Beer-Sheva, Israel). Summarization of bead-level data to gene-level signals was performed using the R package “beadarray” (45) after removal of outliers greater than 3 median absolute deviations (MADs). Between-sample quantile normalization was performed using Partek Genomics Suite (Partek, Inc., St. Louis, Missouri), followed by correction of experimental batch effects (i.e., related to differences in dates of RNA extraction and array processing) using the Partek Batch Remover™ tool. […] Fold change values were presented in linear scale. […] RNA was extracted and full gene expression analysis was preformed.

[4] = system: GA-primed murine splenocytes; assay: Non-parametric Wilcoxon rank sum test GA vs PG; type: cell-based, mouse
From the text: Nominal p-values were FDR adjusted and only probes that were less than or equal to 0.05 were considered.

glatiramer acetate [GA]
Response, Activation of T lymphocytes [1]: Upregulated
Response, Activation of antigen presenting cells [1]: Upregulated
Response, Activation of lymphocytes [1]: Upregulated
Response, Activation of mononuclear leukocytes [1]: Upregulated
Response, Activation of phagocytes [1]: Upregulated
Response, Development of hematopoietic progenitor cells [1]: Down-regulated
Response, Differentiation of effector T lymphocytes [1]: Upregulated
Response, Differentiation of naive lymphocytes [1]: No change
Response, Expansion of lymphocytes [1]: No change
Response, Expansion of mononuclear leukocytes [1]: No change
Response, Immune response of antigen presenting cells [1]: Upregulated
Response, Proliferation of B lymphocytes [1]: Upregulated
Response, Proliferation of T lymphocytes [1]: No change
Response, Proliferation of hematopoietic cell lines [1]: Upregulated
Response, Proliferation of immune cells [1]: Upregulated
Response, Proliferation of lymphocytes [1]: Upregulated
Response, Quantity of cytotoxic T cells [1]: Down-regulated
Response, Stimulation of antigen presenting cells [1]: Upregulated
Response, Stimulation of macrophages [1]: Upregulated
Response, Suppression of T lymphocytes [1]: Upregulated
FOXP3 expression, GA vs PG [2]: significantly higher expression
GPR83 expression, GA vs PG [2]: significantly higher levels of expression
IFNG expression, GA compared to PG ([2]; probes ranked #1 and #3 by fold change): upregulated dramatically
genes up- or down-regulated compared to medium ([3]; FDR-adjusted p value <0.05, fold change of 1.3 or more): 1474 genes
FOXP3 expression ([3]; vs. Medium): over-expressed
Fold Change CD40 ([3]; vs. Medium): 1.533
Fold Change CD86 ([3]; vs. Medium): 1.365
Fold Change FOXP3 ([3]; vs. Medium): 1.406
Fold Change GATA3 ([3]; vs. Medium): 1.877
Fold Change HLA-DMA ([3]; vs. Medium): 1.534
Fold Change HLA-DMB ([3]; vs. Medium): 1.398
Fold Change ICOS ([3]; vs. Medium): 2.164
Fold Change IFNG ([3]; vs. Medium): 16.847
Fold Change IFNGR2 ([3]; vs. Medium): −1.333
Fold Change IL2 ([3]; vs. Medium): 2.074
Fold Change IL2RA ([3]; vs. Medium): 2.457
Fold Change IL2RG ([3]; vs. Medium): −1.386
Fold Change IL4 ([3]; vs. Medium): 4.428
Fold Change IL4R ([3]; vs. Medium): 1.578
Fold Change IL6R ([3]; vs. Medium): −1.545
Fold Change IL10RB ([3]; vs. Medium): −1.323
Fold Change IL12RB1 ([3]; vs. Medium): 2.270
Fold Change IL13 ([3]; vs. Medium): 1.330
Fold Change IL17A ([3]; vs. Medium): 1.451
Fold Change IL17F ([3]; vs. Medium): 2.365
Fold Change IL18 ([3]; vs. Medium): −1.383
Fold Change IL18R1 ([3]; vs. Medium): −1.726
Fold Change TBX21 ([3]; vs. Medium): 2.654
Fold Change TGFBR2 ([3]; vs. Medium): −1.436
Fold Change TNF ([3]; vs. Medium): 1.475
CD40 expression, GA vs PG [4]: significantly lower expression
